Experimental data reported in US20260001875A1, “AMINOPYRIMIDINYL DERIVATIVES FOR THE TREATMENT OF PARKINSON'S DISEASE” (UNIVERSITY OF DUNDEE, priority 2022, published 2026).
Like-named read-outs stand apart in the source and are kept apart here.

How the values were obtained:
LRRK2^R1441C = LRRK2^R1441C (Mus musculus, UniProt Q5S006, R1441C); assay: Western blot LRRK2 degradation in LRRK2^R1441C MEFs; format: cell-based; settings: 4 h treatment
Rab10 pThr73 = assay: Rab10 Thr73 dephosphorylation (immunoblot) in LRRK2^G2019S MEFs; format: cell-based; settings: Mus musculus, read-out: pRab10 inhibited in LRRK2^G2019S MEFs

Sequence of LRRK2^R1441C (Q5S006 whole entry R1441C): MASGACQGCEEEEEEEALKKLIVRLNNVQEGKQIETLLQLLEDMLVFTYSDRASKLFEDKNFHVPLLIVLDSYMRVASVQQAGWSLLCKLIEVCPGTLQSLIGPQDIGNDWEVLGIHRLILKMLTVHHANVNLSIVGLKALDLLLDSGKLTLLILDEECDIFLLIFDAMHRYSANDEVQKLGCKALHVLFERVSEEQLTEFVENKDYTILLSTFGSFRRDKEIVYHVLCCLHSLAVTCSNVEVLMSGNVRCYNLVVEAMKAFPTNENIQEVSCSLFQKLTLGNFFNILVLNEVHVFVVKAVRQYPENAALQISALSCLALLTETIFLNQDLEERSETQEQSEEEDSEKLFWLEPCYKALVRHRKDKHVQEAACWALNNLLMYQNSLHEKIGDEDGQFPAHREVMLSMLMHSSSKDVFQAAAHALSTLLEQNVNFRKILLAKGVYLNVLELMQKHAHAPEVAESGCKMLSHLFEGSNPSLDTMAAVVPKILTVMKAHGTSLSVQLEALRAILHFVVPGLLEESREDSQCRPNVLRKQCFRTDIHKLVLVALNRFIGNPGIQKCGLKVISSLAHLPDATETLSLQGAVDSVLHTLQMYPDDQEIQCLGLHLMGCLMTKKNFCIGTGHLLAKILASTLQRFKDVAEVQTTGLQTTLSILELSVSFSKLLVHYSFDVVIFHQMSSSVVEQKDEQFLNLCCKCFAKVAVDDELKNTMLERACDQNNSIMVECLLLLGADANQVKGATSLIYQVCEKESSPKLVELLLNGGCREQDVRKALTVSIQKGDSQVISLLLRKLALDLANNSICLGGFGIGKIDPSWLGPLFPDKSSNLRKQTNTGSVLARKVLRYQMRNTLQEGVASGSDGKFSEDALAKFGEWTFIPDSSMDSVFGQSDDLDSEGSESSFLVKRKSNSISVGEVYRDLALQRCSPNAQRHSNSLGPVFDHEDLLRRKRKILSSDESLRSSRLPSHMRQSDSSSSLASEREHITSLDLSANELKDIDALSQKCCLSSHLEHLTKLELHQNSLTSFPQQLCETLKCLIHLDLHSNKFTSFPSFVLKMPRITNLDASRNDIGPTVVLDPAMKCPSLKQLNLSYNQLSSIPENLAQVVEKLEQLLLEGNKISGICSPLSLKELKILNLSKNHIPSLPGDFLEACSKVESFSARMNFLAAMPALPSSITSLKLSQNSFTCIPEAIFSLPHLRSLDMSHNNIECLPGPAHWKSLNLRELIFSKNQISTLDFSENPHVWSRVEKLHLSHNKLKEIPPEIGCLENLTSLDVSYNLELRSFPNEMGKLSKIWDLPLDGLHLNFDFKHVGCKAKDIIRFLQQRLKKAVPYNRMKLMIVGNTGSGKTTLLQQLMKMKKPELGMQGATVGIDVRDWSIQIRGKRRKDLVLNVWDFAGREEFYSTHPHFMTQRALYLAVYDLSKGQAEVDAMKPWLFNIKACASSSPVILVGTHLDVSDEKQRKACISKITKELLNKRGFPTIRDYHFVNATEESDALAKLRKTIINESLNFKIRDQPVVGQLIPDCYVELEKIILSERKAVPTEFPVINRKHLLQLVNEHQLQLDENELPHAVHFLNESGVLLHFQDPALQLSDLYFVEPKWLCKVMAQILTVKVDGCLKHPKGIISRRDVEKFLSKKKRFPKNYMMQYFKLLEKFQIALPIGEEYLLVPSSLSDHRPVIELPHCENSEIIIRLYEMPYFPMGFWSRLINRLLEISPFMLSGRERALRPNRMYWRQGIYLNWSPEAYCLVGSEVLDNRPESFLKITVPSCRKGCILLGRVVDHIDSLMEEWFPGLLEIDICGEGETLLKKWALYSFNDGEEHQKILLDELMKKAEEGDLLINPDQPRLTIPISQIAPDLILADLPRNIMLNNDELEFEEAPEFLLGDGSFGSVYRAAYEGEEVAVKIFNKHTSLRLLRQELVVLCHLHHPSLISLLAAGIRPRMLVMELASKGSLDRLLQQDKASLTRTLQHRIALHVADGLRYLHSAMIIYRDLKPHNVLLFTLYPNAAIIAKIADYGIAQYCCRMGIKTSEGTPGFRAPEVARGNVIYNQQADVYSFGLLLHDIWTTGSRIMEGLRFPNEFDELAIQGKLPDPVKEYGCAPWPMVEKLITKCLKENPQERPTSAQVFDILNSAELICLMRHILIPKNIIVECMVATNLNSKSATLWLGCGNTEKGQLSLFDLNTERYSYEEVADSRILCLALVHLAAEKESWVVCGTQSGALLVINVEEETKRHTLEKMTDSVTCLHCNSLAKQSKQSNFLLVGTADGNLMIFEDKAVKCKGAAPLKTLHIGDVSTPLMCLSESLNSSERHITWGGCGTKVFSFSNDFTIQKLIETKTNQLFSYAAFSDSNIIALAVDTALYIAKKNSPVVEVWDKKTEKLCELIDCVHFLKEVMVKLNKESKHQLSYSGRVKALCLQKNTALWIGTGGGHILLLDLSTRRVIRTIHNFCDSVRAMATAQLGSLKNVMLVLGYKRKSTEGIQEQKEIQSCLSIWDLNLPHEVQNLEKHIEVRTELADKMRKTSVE

Row | Compound | LRRK2^R1441C degradation (in words) (LRRK2^R1441C) | inhibition at 0.033 µM (Rab10 pThr73; 33 nM/4 h treatment) | inhibition at 0.033 µM (Rab10 pThr73; 33 nM/24 h treatment) | Dmax of LRRK2^R1441C degradation (LRRK2^R1441C; dose response)
1 | CNc1nc(Nc2ccc(C(=O)N3CCN(C[C@H]4CC[C@H](CSC(C)(C)[C@H](NC(=O)C5(F)CC5)C(=O)N5C[C@@H](O)CC5C(=O)NCc5ccc(-c6scnc6C)cc5)CC4)CC3)cc2OC)ncc1Cl (stereo partly drawn) [Cis-XL01126, (2S,4S)-1-((R)-3-((((1r,4R)-4-((4-(4-((5-chloro-4-(methylamino)pyrimidin-2-yl)amino)-3-methoxybenzoyl)piperazin-1-yl)methyl)cyclohexyl)methyl)thio)-2-(1-fluorocyclopropane-1-carboxamido)-3-methylbutanoyl)-4-hydroxy-N-(4-(4-methylthiazol-5-yl)benzyl)pyrrolidine-2-carboxamide] | cannot degrade LRRK2^R1441C | – | – | –
2 | CNc1nc(Nc2ccc(C(=O)N3CCN(CCOCCOCCSC(C)(C)[C@H](NC(=O)C4(F)CC4)C(=O)N4C[C@H](O)C[C@H]4C(=O)NCc4ccc(-c5scnc5C)cc4)CC3)cc2OC)ncc1Cl [SD75, (2S,4R)-1-((R)-3-((2-(2-(2-(4-(4-((5-chloro-4-(methylamino)pyrimidin-2-yl)amino)-3-methoxybenzoyl)piperazin-1-yl)ethoxy)ethoxy)ethyl)thio)-2-(1-fluorocyclopropane-1-carboxamido)-3-methylbutanoyl)-4-hydroxy-N-(4-(4-methylthiazol-5-yl)benzyl)pyrrolidine-2-carboxamide] | – | 0 to 60% | 0 to 70% | –
3 | CNc1nc(Nc2ccc(C(=O)N3CCN(C[C@H]4CC[C@H](CSC(C)(C)[C@H](NC(=O)C5(F)CC5)C(=O)N5C[C@H](O)CC5C(=O)NCc5ccc(-c6scnc6C)cc5)CC4)CC3)cc2OC)ncc1Cl (stereo partly drawn) [XL01126, (2S,4R)-1-((R)-3-((((1R,4R)-4-((4-(4-((5-chloro-4-(methylamino)pyrimidin-2-yl)amino)-3-methoxybenzoyl)piperazin-1-yl)methyl)cyclohexyl)methyl)thio)-2-(1-fluorocyclopropane-1-carboxamido)-3-methylbutanoyl)-4-hydroxy-N-(4-(4-methylthiazol-5-yl)benzyl)pyrrolidine-2-carboxamide] | – | – | – | 80-90%
4 | CNc1nc(Nc2ccc(C(=O)N3CCN(C[C@H]4CC[C@@H](CSC(C)(C)[C@H](NC(=O)C5(F)CC5)C(=O)N5C[C@H](O)CC5C(=O)NCc5ccc(-c6scnc6C)cc5)CC4)CC3)cc2OC)ncc1Cl (stereo partly drawn) [XL01134] | – | 0 to 70% | 0 to 90% | –
